Experimental data reported in patent US6380227B1, “Fermentative preparation process for and crystal forms of cytostatics” (Novartis AG, priority 1998, dated 2002).

Experiment: Stability of crystal forms of epothilone B
Conditions: storage, no test described

Question: Which “stability of the solid crystal form” value does the source give for C/C(=C\c1csc(C)n1)[C@@H]1C[C@@H]2O[C@]2(C)CCC[C@H](C)[C@H](O)[C@@H](C)C(=O)C(C)(C)[C@@H](O)CC(=O)O1 [crystal form A, epothilone B] here?
Answer: Its value is “especially stable”.
